From patent US12605382B2, “Pharmaceutical composition for preventing, alleviating, or treating cancer containing 2,6-dichloro-4-(4-(4-hydroxycyclohexylamino)-7H- pyrrolo[2,3-d]pyrimidin-5-yl)phenol as active ingredient” (JBKLAB CO., LTD., priority 2021, dated 2026)

How the values were obtained:
BT20 = test: Cell viability assay (WST-8), breast cancer cell line; format: cell-based, human; details: dose dependently
Protocol: (§1) An experiment was performed to confirm the growth inhibitory effect of the compound of Example 1, the active ingredient of the pharmaceutical composition of the present invention, on breast cancer cell lines through cell viability assay.
(§2) Specifically, the cell viability assay was performed as follows. BT20, a human-derived breast cancer cell line, and MDA-MB-231, a TNBC cell line, were each seeded in 96-well plates at the density of 5×10^3 cells/well and cultured for 24 hours. Then, I-bet 762 and the compound of Example 1 were treated thereto at different concentrations and cultured for 48 hours. At the end of the culture, 100 μl of WST-8 solution was added to each well of the plate, and the absorbance was measured with a microplate reader using a 450 nm optical filter to measure the formazan produced by the reducing factors in living cells.
(§3) FIGS. 4A-4C show the cell viability of MDA-MB-231, MDA-MB-453, and BT-20 after 24 hours of treatment with the compound of Example 1. As shown in FIGS. 4A-4C, it was confirmed that the cell viability was suppressed not only in general breast cancer cell lines, but also in TNBC cell lines dose dependently.

MDA-MB-231 = test: Cell viability assay (WST-8), TNBC cell line; format: cell-based, human; details: dose dependently
Protocol: as §1, §2, §3

[1] = test system: tumor tissues (MDA-MB-231); test: Number of apoptotic bodies in tumor tissues; format: in vivo, BALB/c-nude mice; details: for number of apoptotic body: sum of five areas at ×400
Protocol: An experiment was performed to confirm the tumor necrosis effect of the compound of Example 1, the active ingredient of the pharmaceutical composition of the present invention, by measuring the number of apoptotic bodies in tumors and H&E staining of the tumor tissues in BALB/c-nude mice injected with cancer cell lines.
Specifically, to measure the number of apoptotic bodies in the tumor tissues of the T4, T5, and T6 groups of Experimental Example 1, five areas where the tumor tissues were growing were randomly selected and the number of apoptotic bodies was measured at ×400 magnification. The sum of the measurements was calculated, expressed as individual values, and statistically compared using GraphPad Prism 5.

Hep3B = test: WST-8 cell viability assay, hepatocellular carcinoma cell line; format: cell-based
Protocol: (§4) Specifically, the WST-8 assay to check the cell viability of HepG2 and Hep3B, which are hepatocellular carcinoma cell lines shown in FIGS. 7A-7C and 8A-8C, was performed as follows. HepG2 and Hep3B were each seeded in 96-well plates at the density of 5×10^3 cells/well and cultured for 24 hours. Then, Sorafenib and OPT-0139 were diluted stepwise at a twofold concentration and then treated to the plates at different concentrations, followed by culture for 24, 48, and 72 hours. […] of WST-8 solution was added to each well of the plate, and the absorbance was measured with a microplate reader using a 450 nm optical filter to measure the formazan produced by the reducing factors in living cells.
(§5) Therefore, the number of living cells could be measured by measuring absorbance.

HepG2 = test: as above; format: cell-based
Protocol: as §4, §5

[2] = test system: 4T1 murine triple negative breast cancer cells; test: Tumor size in triple-negative breast cancer allograft mouse model; format: in vivo, BALB/c mice; details: 10 mg/kg intravenously
Protocol: 4T1 murine triple negative breast cancer cells (6×10^5 cells) were injected into the hind limbs of 6-week-old immune-competent BALB/c mice. Seven days after injection, after confirming consistent tumor growth, 10 mice from each group were selected and used in subsequent experiments.
The experimental groups consisted of a control group (no treatment), a radiotherapy group, a group treated with the compound of Example 1, and a group treated with a combination of the compound of Example 1 and radiotherapy. Each treatment was carried out for 31 days after tumor implantation.
Radiation treatment was performed using electron beams, and a total of 24 Gy was irradiated three times, once every two days for one week (Days 10, 12, and 14) (8 Gy×3). The compound of Example 1 was administered intravenously at a dose of 10 mg/kg once every 2 or 3 days (Days 10, 12, 14, 17, 19, and 21) for a total of 6 times over 2 weeks. On the days when radiation therapy and drug administration were conducted simultaneously, the compound of Example 1 was administered after confirming that the mice had recovered from anesthesia 4 hours after radiation therapy.
On each treatment day, the length and width of the tumor were measured using a vernier caliper, and then the tumor volume (mm^3) was calculated using mathematical formula 1 below. Volume (mm^3)=length (mm)×{width (mm)}^2×0.5 [Mathematical Formula 1]

Brd4 = test: Immunocytochemistry (IHC) analysis of tumor tissue, 4T1 allograft model; format: in vivo, BALB/c mice
Excerpt: (§6) In order to evaluate changes in the expression of proteins such as BRD4 and HIF-1α, the tumor cells isolated in Example 10 were subjected to immunocytochemistry (IHC) analysis to evaluate the changes in protein expression in the tumor microenvironment according to the treatment method.
(§7) Specifically, tumor tissue was extracted, fixed in 4% paraformaldehyde, and embedded in paraffin to create blocks. The paraffin block containing the tissue was sliced transversely to a thickness of 4 μm and attached to a slide. Paraffin was removed from the tissue attached to the slide using xylene and ethanol, and endogenous peroxidase was removed from the tissue by immersing the slide in a solution of 3% H2O2 in methanol for 10 minutes at room temperature. Then, for antigen retrieval, the slide was placed in 0.01 M sodium citrate buffer (pH 6.0) and boiled. In order to eliminate non-specific binding, FcR on the cell surface was blocked using 5% normal goat serum. Then, the slide was incubated overnight at 4° C. with primary antibodies (HIF-1a (SantaCruz, sc-13515), PD-L1 (Abcam, ab2025921), CD8 (Abcam, ab203035), and CD68 (CellSignaling, 97778)). Secondary antibodies were attached and color development was induced using ImmPRESSGoat Anti-Rat IgG (Mouse Adsorbed) Polymer kit (Vector Laboratories), Abcam (ab150165, ab150081), and REAL En Visiondetection system (Dako). The stained tissue was observed under an Axioskop40 optical microscope (Carl Zeiss) at 40× magnification, and the images were saved using AxioVision4.7 software. The expression level was measured through the area of the stained region in the photograph using Image J software (NIH, Bethesda). Average density values were calculated from at least three slides per sample.

CD68+ macrophages = test: as above; format: in vivo, BALB/c mice
Excerpt: as §6, §7

CD8+ T cells = test: as above; format: in vivo, BALB/c mice
Excerpt: as §6, §7

HIF-1α = test: as above; format: in vivo, BALB/c mice
Excerpt: as §6, §7

PD-L1 = test: as above; format: in vivo, BALB/c mice
Excerpt: as §6, §7

Compound: Oc1c(Cl)cc(-c2c[nH]c3ncnc(N[C@H]4CC[C@H](O)CC4)c23)cc1Cl [Example 1, (trans)-2,6-dichloro-4-(4-(4-hydroxycyclohexylamino)-7H-pyrrolo[2,3-d]pyrimidin-5-yl)phenol]
- cell viability (BT20; BT20, 48 hours): inhibited the cell viability
- cell viability (BT20; BT-20, 24 hours): suppressed
- cell viability (MDA-MB-231; MDA-MB-231, 24 hours): suppressed
- cell viability (MDA-MB-231; MDA-MB-231, 48 hours): inhibited the cell viability
- number of apoptotic bodies compared to NC (Negative Control) ([1]; T4, T5 and T6 groups, dose dependently): higher
- number of apoptotic body ([1]; T4: 5 mg/kg once i.v.): 9.6 ± 4.7
- number of apoptotic body ([1]; T5: 10 mg/kg once i.v.): 9.2 ± 4.6
- number of apoptotic body ([1]; T6: 20 mg/kg once i.v.): 13.6 ± 7.4
- effect on cell viability compared to Sorafenib (Hep3B): remarkable effect compared to Sorafenib
- cell viability (Hep3B; 24, 48 and 72 hours): decreased the cell viability dose and time dependently
- effect on cell viability compared to Sorafenib (HepG2): remarkable effect compared to Sorafenib
- cell viability (HepG2; 24, 48 and 72 hours): decreased the cell viability dose and time dependently
- tumor growth compared to control group ([2]; alone, 6 times over 2 weeks, observed 31 days): significantly delayed the tumor growth
- tumor growth compared to each administration alone ([2]; combined with radiation (8 Gy×3), 6 times): superior inhibitory effect on the tumor growth
- Brd4 expression in tumor tissue (Brd4): significantly (P<0.001) reduced
- population of CD68+ macrophages in tumor tissue (CD68+ macrophages): significantly (P<0.01) reduced
- population of CD8+ T cells (CD8+ T cells; alone): increased
- population of CD8+ T cells (CD8+ T cells; combined with radiation): further increased (synergistic effect)
- HIF-1α expression in tumor tissue (HIF-1α): significantly (P<0.05) reduced
- expression of PD-L1 (PD-L1): significantly (P<0.01) decreased
